5 molecules from ChEMBL document CHEMBL4130627, “Prodrugs of the Phosphoribosylated Forms of Hydroxypyrazinecarboxamide Pseudobase T-705 and Its De-Fluoro Analogue T-1105 as Potent Influenza Virus Inhibitors” (J Med Chem, 2018) can be followed below.

SMILES strings stand for the structures. pEC50, pIC50: −log10 of the molar value. The source made the active and inactive calls. The calls are words filed in the database; no cut-off is given here. Some results are limits rather than exact numbers.

Series [1] in a line: Cytotoxicity against MDCK cells assessed as change in cell morphology after 3 days by microscopic analysis. The class given is cell-based, Canis lupus familiaris. Particulars: dog.
In series [2] the test system is Influenza A virus. Nature of the series: microbe, parasite or virus in culture. Particulars: MDCK, 72 h.
Description: Antiviral activity against Influenza virus A/X-31 infected in MDCK cells assessed as reduction in viral replication at 3 days post infection by formazan-based MTS assay
The nature of series [3]: Cytotoxicity against HGPRT deficient 6-thioguanine-resistant MDCK cells assessed as change in cell morphology after 3 days by microscopic analysis. Format: cell-based, Canis lupus familiaris. Particulars: dog.
Series [4] in a line: Prodrug activation in phosphate buffer at pH 7.3 assessed as half life for T-1105-RMP formation up to 332 hrs by RP-HPLC-UV analysis. Format: physicochemical. Particulars: pH 7.3, 332 h.
Series [5] has as its system Influenza B virus. Briefly: microbe, parasite or virus in culture. Particulars: Ned/537/05, MDCK, 72 h.
Description: Antiviral activity against Influenza virus B/Ned/537/05 infected in MDCK cells assessed as reduction in viral replication at 3 days post infection by microscopic analysis
For series [6], the system named is Influenza B virus. Nature of the series: microbe, parasite or virus in culture. Particulars: Ned/537/05, MDCK, 72 h. The source holds these as a separate data set.
Description: Antiviral activity against Influenza virus B/Ned/537/05 infected in MDCK cells assessed as reduction in viral replication at 3 days post infection by formazan-based MTS assay
Series [7] relates to Influenza A virus. Briefly: microbe, parasite or virus in culture. Particulars: MDCK, 72 h. This is another data set of the same source.
Description: Antiviral activity against Influenza virus A/X-31 infected in MDCK cells assessed as reduction in viral replication at 3 days post infection by microscopic analysis
Series [8] in a line: Cytotoxicity against MDCK cells assessed as reduction in cell viability after 3 days by formazan-based MTS assay. Also noted: species or system Canis lupus familiaris. Particulars: dog. A general note: Tetrazolium assays rely on reduction of a dye to a coloured formazan, in cell work by metabolically active cells.
The test system of series [9] is Influenza A virus. Format: functional, organism-based. Particulars: Influenza A virus (A/X-31(H3N2)); MDCK; 250 uM.
The test system of series [10] is Influenza A virus. Format: functional, organism-based. Particulars: Influenza A virus (A/X-31(H3N2)); MDCK; 250 uM. The source holds these as a separate data set.
In series [11] the test system is Influenza A virus. The class given is functional, organism-based. Particulars: Influenza A virus (A/X-31(H3N2)); MDCK; 100 uM.
The nature of series [12]: Drug metabolism in MDCK cells assessed as T-1105-RDP formation at 450 uM up to 4 hrs by RP-HPLC-UV analysis. The class given is ADME, cell-based, Canis lupus familiaris. Particulars: dog.
A further series has as its target T1, Liver carboxylesterase (Sus scrofa, UniProt Q29550).
T1 sequence (Q29550 whole entry): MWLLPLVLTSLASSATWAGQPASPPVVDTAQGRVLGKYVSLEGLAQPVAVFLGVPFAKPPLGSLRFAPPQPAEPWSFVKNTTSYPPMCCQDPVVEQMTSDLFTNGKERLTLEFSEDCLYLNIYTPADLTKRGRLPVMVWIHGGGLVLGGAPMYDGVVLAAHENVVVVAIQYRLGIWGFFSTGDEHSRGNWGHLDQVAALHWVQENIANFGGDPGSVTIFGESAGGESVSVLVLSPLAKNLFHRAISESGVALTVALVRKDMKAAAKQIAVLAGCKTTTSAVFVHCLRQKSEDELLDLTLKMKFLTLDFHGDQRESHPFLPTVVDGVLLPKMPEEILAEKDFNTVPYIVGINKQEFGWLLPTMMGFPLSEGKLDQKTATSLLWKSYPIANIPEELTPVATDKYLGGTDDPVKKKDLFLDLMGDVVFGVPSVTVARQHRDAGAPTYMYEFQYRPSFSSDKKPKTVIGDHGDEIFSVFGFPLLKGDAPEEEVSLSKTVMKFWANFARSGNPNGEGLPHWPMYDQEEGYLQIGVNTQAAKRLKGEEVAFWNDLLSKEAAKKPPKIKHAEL
Briefly: Drug metabolism assessed as pig liver esterase mediated 4-(((((((2R,3S,4R,5R)-5-(3-carbamoyl-2-oxopyrazin-1(2H)-yl)-3,4-dihydroxytetrahydrofuran-2-yl)methoxy)(hydroxy)phosphoryloxy)(hydroxy)phosphoryloxy)(hydroxy)phosphoryloxy)methyl)phenyl decanoate formation at 450 uM after 1 to 8 hrs by RP-HPLC-UV analysis. Format: ADME. Particulars: isolated protein.

A short description of series [13]: Inhibition of Influenza virus A/X-31 RNA dependent RNA polymerase using ApG primer [adenyl (3'-5') guanosine] and [8-3H]GTP after 1 hr by filter-based assay. Further details: species or system Influenza A virus (A/X-31(H3N2)).
The test system of series [14] is MDCK. Nature of the series: Prodrug activation in MDCK cells assessed as T-1105-RMP formation at 450 uM up to 4 hrs by RP-HPLC-UV analysis. Format: cell-based, Canis lupus familiaris. Particulars: dog.
Series [15] is described as follows: Inhibition of Influenza virus B/Ned/537/05 RNA dependent RNA polymerase using ApG primer [adenyl (3'-5') guanosine] and [8-3H]GTP after 1 hr by filter-based assay.
Series [16] in a line: Drug metabolism in MDCK cells assessed as 4-((((((2R,3S,4R,5R)-5-(3-carbamoyl-2-oxopyrazin-1(2H)-yl)-3,4-dihydroxytetrahydrofuran-2-yl)methoxy)(hydroxy)phosphoryloxy)(hydroxy)phosphoryloxy)methyl)phenyl decanoate formation at 450 uM up to 4 hrs by RP-HPLC-UV analysis. The class given is ADME, cell-based, Canis lupus familiaris. Particulars: dog.
In series [17] the test system is MDCK. Briefly: Prodrug activation in MDCK cells assessed as T-1105-RTP formation at 450 uM up to 4 hrs by RP-HPLC-UV analysis. Format: cell-based, Canis lupus familiaris. Particulars: dog.
Series [18] concerns MDCK. The class given is cell-based, Canis lupus familiaris. Particulars: dog, 2 h, 500 µM.
Series [19] deals with MDCK. Nature of the series: Prodrug activation in MDCK cells assessed as T-1105-RDP formation at 500 uM after 2 hrs by RP-HPLC-UV analysis. Format: cell-based, Canis lupus familiaris. Particulars: dog.
A short description of series [20]: Half life of the compound in 25 mM phosphate buffe at pH 1.5 to 7.3 by RP-HPLC analysis. Particulars: phosphate buffer. The class given is physicochemical.
Series [21] relates to MDCK. Briefly: Prodrug activation in MDCK cells assessed as T-1105-RMP formation at 465 uM after 1 to 840 mins by RP-HPLC-UV analysis. Format: cell-based, Canis lupus familiaris. Particulars: dog.
Series [22] deals with MDCK. Briefly: Prodrug activation in HGPRT deficient MDCK cells assessed as T-1105-RMP formation at 465 uM after 1 to 840 mins by RP-HPLC-UV analysis. The class given is cell-based, Canis lupus familiaris. Particulars: dog.

A word on the pEC50: it is −log10 of the EC50, conventionally taken in molar units. A low value points to a high EC50. A word on the CC50: it is the concentration that lowers cell viability or growth by half. Turning to `Cc1cccc2c1OP(=O)(OC[C@H]1O[C@@H](n3ccnc(C(N)=O)c3=O)[C@H](O)[C@@H]1O)OC2` (stereo partly specified), the MCC at 72 h in series [1] and in [3] was more than 400 µM in each case. The pEC50 was less than 3.40 in the series on Influenza A virus [2], 3.75 in the series on Influenza B virus [5], 3.87 in the series on Influenza B virus [6] and 3.55 in the series with Influenza A virus [7]. Also, in [4], the t1/2 turned out to be 1.2 h. Further, the CC50 at 72 h in series [8] is more than 400 µM.
Consider `NC(=O)c1nc(F)cnc1O`, for which the pEC50 is 4.59 in the series with Influenza A virus [2], 5.05 with Influenza B virus [5], 5.08 with Influenza B virus [6] and 4.62 in the series with Influenza A virus [7]. Also, the inhibition entry in the series with Influenza A virus [9] and in the series with Influenza A virus [11] was “Active” in each case. For the same molecule, the inhibition result in the series on Influenza A virus [10] was “inactive”.
By pIC50 is commonly meant the negative decadic logarithm of the IC50, by convention in mol/L. A low value points to a high IC50. As for `CCCCCCCCCC(=O)Oc1ccc(COP(=O)(OCc2ccc(OC(=O)CCCCCCCCC)cc2)OP(=O)(O)OP(=O)(O)OC[C@H]2O[C@@H](n3ccnc(C(N)=O)c3=O)[C@H](O)[C@@H]2O)cc1.CCN(CC)CC.CCN(CC)CC`, the MCC at 72 h in [1] came out at 16 µM; in series [3], 13 µM. Besides, the Drug metabolism entry is on record as “Metabolite_Detected” in series [12]; “Metabolite_Detected” on Liver carboxylesterase; “Metabolite_Detected” with MDCK [14]; “Metabolite_Detected” in series [16]; “Metabolite_Notdetected” with MDCK [17]; “Metabolite_Detected” in the series with MDCK [18]. Further, in the series on MDCK [19], the Drug metabolism entry was “Metabolite_Detected”. The negative logarithm of the EC50 (pEC50) in the series on Influenza A virus [2] was 5.44; with Influenza B virus [5], 5.59; in the series on Influenza B virus [6], 5.62; with Influenza A virus [7], 5.59. In addition, the negative-log IC50 (pIC50) in [13] and in series [15] was 3.90 to 4.31 throughout. Also, the CC50 at 72 h in series [8] came out at 30 µM.
Broadly, the half-life is how long it takes for the measured level to halve. Read a low half-life as fast loss. The molecule `Cc1cccc2c1OP(=O)(OC[C@@H]1CC[C@H](n3cnc4c(=O)[nH]cnc43)O1)OC2` (stereo partly specified) displayed a half-life in [20] of 10 to 45 h.
In the case of `NC(=O)c1nccn([C@@H]2O[C@H](COP(=O)(O)OP(=O)(O)OP(=O)(O)O)[C@@H](O)[C@H]2O)c1=O`, the pIC50 was 5.01 to 6.32 in series [13] and 6.16 in [15]. For the same molecule, the Drug metabolism result in the series on MDCK [21] and in the series on MDCK [22] was “Metabolite_Detected” throughout.
